From patent US12329158B2, “Large-scale methods of uniformly coating packaging surfaces with a volatile antimicrobial to preserve food freshness” (AGROFRESH INC., priority 2013, dated 2025)
Converted amounts (≈) assume the structure as drawn. Read-outs that look alike come from different tables or passages of the source.

How the values were obtained:
[1] = tested on: Botrytis cinerea; experiment: Volatile MIC assay (Example 9); type: cell-based; conditions: 72 h, headspace concentration, 3 days at 23 C, read-out: MIC (mg/L) BOTRCI
Method: (§1) A 3-mL volume of full-strength Potato Dextrose Agar (PDA) is added to each well. […] Plates are inoculated immediately prior to volatile fungicide treatment. A Whatman #1 filter disk (Cat. No. 1001-0155) is placed, in duplicate, on the underside of a polyethylene PCR plate sealing film. […] The acetone is permitted to evaporate for 5 minutes. The headspace around the inoculum is then sealed inside the well by the film with the adhering disk containing the fungicide by inverting the plates over the treated disks and sealing to prevent any of the chemical from flaking from the disk and falling onto the inoculated agar.

[2] = tested on: Glomerella cingulata; experiment: Volatile MIC assay (Example 9); type: cell-based; conditions: Colletotrichum gloeosporioides, 72 h, headspace concentration, 3 days at 23 C, read-out: MIC (mg/L) GLOMCI
Method: as §1

[3] = tested on: Alternaria alternata; experiment: Volatile MIC assay (Example 9); type: cell-based; conditions: 72 h, headspace concentration, 3 days at 23 C, read-out: MIC (mg/L) ALTEAL
Method: as §1

[4] = tested on: Monilinia fructicola; experiment: Volatile MIC assay (Example 9); type: cell-based; conditions: 72 h, headspace concentration, 3 days at 23 C, read-out: MIC (mg/L) MONIFC
Method: as §1

[5] = tested on: Penicillium expansum; experiment: Volatile MIC assay (Example 9); type: cell-based; conditions: 72 h, headspace concentration, 3 days at 23 C, read-out: MIC (mg/L) PENIEX
Method: as §1

[6] = tested on: Penicillium expansum; experiment: Blue mold on apple and pear, contact assay (Example 25); type: in vivo; conditions: Contact (dip); rate not given; day 3 at 21 C after 5 days at 1 C
Method: (§2) A 250 mL solution of each concentration is used to dip two inoculated fruits, one minute per fruit, performed in triplicate per rate. The dipped fruits are then placed back into the clamshells and then into the SnapWare container and incubated at 1° C. for 5 days. […] Volatile application of Compound A results in excellent inhibition of browning and sporulation, whereas all other active ingredients result in no or little inhibition.

[7] = tested on: Penicillium expansum; experiment: Blue mold on apple, volatile assay; type: in vivo
Method: Compound A is mixed with acetone and 250 μL of the mixture is pipetted into a small glass tube. […] After incubation, fruits are evaluated by measuring the diameter (mm) of rot development (browning) up to 7 days at 21° C.

[8] = tested on: C. albicans; experiment: In vitro volatile assay, yeast infection species (Example 27); type: cell-based; conditions: Candida albicans
Method: More specifically, growth inhibition of yeast infection fungal species C. albicans and C. krusei (or I. orientalis) by volatile treatment of Compound 10 was assessed via a volatile assay.
Volatile assay: 6-well (16.5 mL volume per well) microtiter plates are used in an in vitro inhibition assay for Compound 10 (i.e., Compound A). A 7.5-mL volume of half strength PDA is added to each well. After drying, a mycelial plug (5 mm diameter) is aseptically obtained from actively growing cultures of C. albicans and C. krusei (or I. orientalis) and placed at the center of the plate with the mycelial side in contact with the agar. A Whatman #1 filter disk (Cat. No. 1001-325) is placed, in duplicate, on the underside of a polyethylene PCR plate sealing film. […] The acetone/methanol is permitted to evaporate for 5 minutes. The headspace around the inoculum is then sealed inside the well by the film with the adhering disk containing the fungicide and incubated inverted for 5 days at 28° C.

[9] = tested on: Botrytis cinerea; experiment: In vitro inhibition assay for volatile fungicide, 12-well plates (Example 7); type: cell-based
Method: For testing activity against fungi pathogens, an in vitro inhibition assay for volatile antimicrobial compounds is developed using 12-Well (7 milliliter (mL) volume per well) microtiter plates. A 3-mL volume of full-strength Potato Dextrose Agar (PDA) is added to each well. After cooling, 1 microliter (μL) of 1×10^6 per mL Botrytis cinerea spore suspension is spot pipetted to the center of the agar. For the first experiment, inoculated plates are allowed to germinate for 5 days at 4° C. For the second experiment, plates are inoculated immediately prior to volatile fungicide treatment. Small Whatman #1 filter disks (Cat. No. 1001-0155) are placed, in duplicate, on the underside of a polyethylene PCR plate sealing film.
The acetone is permitted to evaporate for 5 minutes. The headspace around the Botrytis cinerea inoculum is then sealed inside the well by the film with the adhering disk containing the fungicide. Plates are inverted, placed over the treated disks and sealed to prevent any of the chemical from flaking from the disk and falling onto the inoculated agar. After 14 days of storage at 4° C., cultures are evaluated for percent growth relative to control. […]

[10] = tested on: Penicillium digitatum; experiment: Green mold on orange, contact assay (Example 25); type: in vivo; conditions: Contact (dip); rate not given; day 3 at 21 C after 5 days at 1 C
Method: as §2

With `OB1OCc2cc(F)ccc21` [Compound A, 5-fluoro-1,3-dihydro-1-hydroxy-2,1-benzoxaborole] the MIC [1] was 2.2 mg/L (≈ 14.5 µM), the MIC [2] was less than 0.6 mg/L and the MIC [3] was less than 0.6 mg/L. For the same compound, the MIC [4] was less than 0.6 mg/L, the MIC [5] was 2.2 mg/L (≈ 14.5 µM) and the “Apple Browning (mm)” value [6] was 9.9 mm. For the same compound, the “Apple Sporulation (mm)” value [6] was 2.3 mm, the “Pear Browning (mm)” value [6] was 18.9 mm and the “Pear Sporulation (mm)” value [6] was 8.4 mm. For the same compound, the “Browning Rot (diameter; mm)” value ([7]; 0.02 mg/L, Day 0) was 0.0 mm, the “Browning Rot (diameter; mm)” value ([7]; 0.02 mg/L, Day 2) was 0.9 mm and the “Browning Rot (diameter; mm)” value ([7]; 0.02 mg/L, Day 4) was 2.8 mm. The “Browning Rot (diameter; mm)” value ([7]; 0.02 mg/L, Day 7) was 6.9 mm, the “Browning Rot (diameter; mm)” value ([7]; 0.1 mg/L, Day 0) was 0.0 mm and the “Browning Rot (diameter; mm)” value ([7]; 0.1 mg/L, Day 2) was 0.0 mm. For the same compound, the “Browning Rot (diameter; mm)” value ([7]; 0.1 mg/L, Day 4) was 0.3 mm, the “Browning Rot (diameter; mm)” value ([7]; 0.1 mg/L, Day 7) was 2.0 mm and the “Browning Rot (diameter; mm)” value ([7]; 0.5 mg/L, Day 0) was 0.0 mm. The “Browning Rot (diameter; mm)” value ([7]; 0.5 mg/L, Day 2) was 0.0 mm, the “Browning Rot (diameter; mm)” value ([7]; 0.5 mg/L, Day 4) was 0.0 mm and the “Browning Rot (diameter; mm)” value ([7]; 0.5 mg/L, Day 7) was 0.4 mm. For the same compound, the “Browning Rot (diameter; mm)” value ([7]; 2.5 mg/L, Day 0) was 0.0 mm, the “Browning Rot (diameter; mm)” value ([7]; 2.5 mg/L, Day 2) was 0.0 mm and the “Browning Rot (diameter; mm)” value ([7]; 2.5 mg/L, Day 4) was 0.0 mm. For the same compound, the “Browning Rot (diameter; mm)” value ([7]; 2.5 mg/L, Day 7) was 0.0 mm, the inhibition at 0.017 µg/mL ([8]; 0.017 mg/L, read-out: Growth Inhibition (%) C. albicans) was 2% and the inhibition at 0.035 µg/mL ([8]; 0.035 mg/L, read-out: Growth Inhibition (%) C. albicans) was 1.6%. It also gave an inhibition at 0.07 µg/mL ([8]; 0.07 mg/L, read-out: Growth Inhibition (%) C. albicans) of 7.9%, an inhibition at 0.1 µg/mL ([8]; 0.1 mg/L, read-out: Growth Inhibition (%) C. albicans) of 11.9% and an inhibition at 0.3 µg/mL ([8]; 0.3 mg/L, read-out: Growth Inhibition (%) C. albicans) of 18.5%. The inhibition at 0.6 µg/mL ([8]; 0.6 mg/L, read-out: Growth Inhibition (%) C. albicans) was 22.2%, the inhibition at […] ([8]; 1.1 mg/L, read-out: Growth Inhibition (%) C. albicans) was 40.2% and the inhibition at […] ([8]; 2.2 mg/L, read-out: Growth Inhibition (%) C. albicans) was 100%. It also gave an inhibition at […] ([8]; 4.5 mg/L, read-out: Growth Inhibition (%) C. albicans) of 100%, an inhibition at […] ([8]; 8.9 mg/L, read-out: Growth Inhibition (%) C. albicans) of 100% and an MIC ([8]; 120 h, 100% control, 5 days at 28 C, read-out: minimum inhibitory concentration (MIC) for C. albicans) of 2.2 µg/mL (≈ 14.5 µM). For the same compound, the “Botrytis inhibition % (in vitro)” value ([9]; 0.0006 mg per disk) was 46%, the “Botrytis inhibition % (in vitro)” value ([9]; 0.001 mg per disk) was 69% and the “Botrytis inhibition % (in vitro)” value ([9]; 0.0024 mg per disk) was 85%. The “Botrytis inhibition % (in vitro)” value ([9]; 0.005 mg per disk) was 100%, the “Botrytis inhibition % (in vitro)” value ([9]; 0.01 mg per disk) was 100% and the “Botrytis inhibition % (in vitro)” value ([9]; 0.023 mg per disk) was 100%. For the same compound, the “Botrytis inhibition % (in vitro)” value ([9]; 0.04 mg per disk) was 100%, the “Botrytis inhibition % (in vitro)” value ([9]; 0.08 mg per disk) was 100% and the “Botrytis inhibition % (in vitro)” value ([9]; 0.16 mg per disk) was 100%. The “Botrytis inhibition % (in vitro)” value ([9]; 0.31 mg per disk) was 100%, the “Botrytis inhibition % (in vitro)” value ([9]; 0.63 mg per disk) was 100% and the “Botrytis inhibition % (in vitro)” value ([9]; 1.25 mg per disk) was 100%. For the same compound, the “Rate giving 100% in vitro inhibition of Botrytis cinerea” value ([9]; volatile, 14 days at 4 C) was 0.005 mg/disk and the “Orange Sporulation (mm)” value [10] was greater than 50 mm.
